# Biological target: MIF (Homo sapiens (Human), UniProt P14174)
# Assay: MIF tautomerase assay using pHPP as substrate
# Assay type: biochemical
# Settings: cell-free, pHPP substrate 1.5 mM, MIF 3 nM; mean pIC50 of multiple test results
# Experimental: Tautomerase Assay Using pHPP as substrate
# This assay measured MIF's tautomerase activity in a cell-free system and was based on the determination of initial rates of the MIF-catalyzed conversion of the ketonic into the enolic tautomer of pHPP. This was achieved by spectrophotometric quantification of the complex between borate and the product of the reaction (enolic pHPP). The substrate was prepared by conversion of the enolic pHPP into its ketonic form. To achieve this, 0.5 M pHPP in methanol was diluted 10-fold with 50 mM sodium acetate buffer at pH 6.0, and then the suspension was shaken for 24 h at room temperature in darkness, and finally stored at 4° C. for not more than 1 week, with 5 min sonication being recommended before use.
# Assays were performed in small-volume clear-bottom black 96 or 384-well polystyrene plates (Greiner Bio-One). First, 2 μL of the enzyme solution containing 6 nM of MIF in DPBS, 0.025% w/v BSA, and 300 μM CHAPS was dispensed onto sample and negative control wells using Multidrop Combi with metallic tip cassettes (Thermo Fisher Scientific) previously treated with Sigmacote. Then, 2 μL of the same buffer without MIF was dispensed onto positive control wells. The reaction was started by addition of the following to all wells: 2 μL of substrate solution containing 3 mM ketonic pHPP in 200 mM boric acid, 25 mM sodium phosphate, 0.025% w/v BSA, and 300 μM CHAPS at pH 6.0. In order to remove bubbles, the plate was centrifuged in an Allegra 25R centrifuge (Beckman Coulter, Inc., Brea, CA) at 1000 rpm for 2 min at room temperature. Then, the plate was read in an EnVision. Final concentrations of enzyme and substrate were 3 nM and 1.5 mM, respectively. Initial rates were calculated for each well as the slope of the absorbance progress curve.
# The data mentioned below represents a mean pIC50 value of multiple test results. It is understood that the data illustrated below may have reasonable variation depending on the specific conditions and procedures used by the person conducting the testing.
# Sequence of MIF (P14174 2-115): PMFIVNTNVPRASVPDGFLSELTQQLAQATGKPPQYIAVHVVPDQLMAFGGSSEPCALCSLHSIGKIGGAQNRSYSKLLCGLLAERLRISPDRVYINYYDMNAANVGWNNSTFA
row,Compound,Tautomerase Inhibition pIC50
1,"COc1ccc(C(=O)Nc2nnc(-c3ccco3)o2)c(Cl)c1 [Compound 1, 2-chloro-N-(5-(furan-2-yl)-1,3,4-oxadiazol-2-yl)-4-methoxybenzamide]",<5
2,"COc1ccc(C(=O)Nc2nnc(-c3ccccc3)o2)c(OC)c1 [Compound 2, 2,4-dimethoxy-N-(5-phenyl-1,3,4-oxadiazol-2-yl)benzamide]",5.07
3,"O=C(Nc1nnc(-c2ccco2)o1)[C@H]1CCN(Cc2ccccc2)C1 [Compound 3, (S)-1-benzyl-N-(5-(furan-2-yl)-1,3,4-oxadiazol-2-yl)pyrrolidine-3-carboxamide]",<5
4,"COc1ccc(C(=O)Nc2nnc(-c3ccc(O)cc3)o2)c(OC)c1 [Compound 4, N-(5-(4-hydroxyphenyl)-1,3,4-oxadiazol-2-yl)-2,4-dimethoxybenzamide]",5.58
5,"COc1ccc(C(=O)Nc2nnc(-c3ccsc3)o2)c(OC)c1 [Compound 5, 2,4-dimethoxy-N-(5-(thiophen-3-yl)-1,3,4-oxadiazol-2-yl)benzamide]",7.73
6,"COc1ccc(C(=O)Nc2nnc(-c3sccc3C)o2)c(OC)c1 [Compound 7, 2,4-dimethoxy-N-(5-(3-methylthiophen-2-yl)-1,3,4-oxadiazol-2-yl)benzamide]",<5
7,"COc1ccc(C(=O)Nc2nnc(-c3sccc3F)o2)c(OC)c1 [Compound 8, N-(5-(3-fluorothiophen-2-yl)-1,3,4-oxadiazol-2-yl)-2,4-dimethoxybenzamide]",6.54
8,"CCOc1ccccc1C(=O)Nc1nnc(-c2cccs2)o1 [Compound 10, 2-ethoxy-N-(5-(thiophen-2-yl)-1,3,4-oxadiazol-2-yl)benzamide]",5.90
9,"COC(=O)c1ccccc1C(=O)Nc1nnc(-c2cccs2)o1 [Compound 12, methyl 2-((5-(thiophen-2-yl)-1,3,4-oxadiazol-2-yl)carbamoyl)benzoate]",<5
10,"O=C(Cc1ccccc1)Nc1nnc(-c2cccs2)o1 [Compound 13, 2-phenyl-N-(5-(thiophen-2-yl)-1,3,4-oxadiazol-2-yl)acetamide]",<5
11,"COc1ccc(C(=O)Nc2ccc(-c3ccco3)nn2)c(OC)c1 [Compound 14, N-(6-(furan-2-yl)pyridazin-3-yl)-2,4-dimethoxybenzamide]",5.91
12,"COc1cc(O)ccc1C(=O)Nc1nnc(-c2cccs2)o1 [Compound 16, 4-hydroxy-2-methoxy-N-(5-(thiophen-2-yl)-1,3,4-oxadiazol-2-yl)benzamide]",7.09
13,"COc1cc(OCCOCc2ccccc2)ccc1C(=O)Nc1nnc(-c2cccs2)o1 [Compound 18, 4-(2-(benzyloxy)ethoxy)-2-methoxy-N-(5-(thiophen-2-yl)-1,3,4-oxadiazol-2-yl)benzamide]",7.63
14,"COc1cc(CCCC#N)ccc1C(=O)Nc1nnc(-c2cccs2)o1 [Compound 25, 4-(3-cyanopropyl)-2-methoxy-N-(5-(thiophen-2-yl)-1,3,4-oxadiazol-2-yl)benzamide]",7.68
15,"COc1cc(CCCc2nn[nH]n2)ccc1C(=O)Nc1nnc(-c2cccs2)o1 [Compound 26, 4-(3-(2H-tetrazol-5-yl)propyl)-2-methoxy-N-(5-(thiophen-2-yl)-1,3,4-oxadiazol-2-yl)benzamide]",7.95
16,"COc1cc(C2=CCC(C(=O)O)CC2)ccc1C(=O)Nc1nnc(-c2cccs2)o1 (stereo not drawn) [Compound 29, 3′-methoxy-4′-((5-(thiophen-2-yl)-1,3,4-oxadiazol-2-yl)carbamoyl)-2,3,4,5-tetrahydro-[1,1′-biphenyl]-4-carboxylic acid]",8.14
17,"COc1cc(N2CCCC2C(=O)O)ccc1C(=O)Nc1nnc(-c2cccs2)o1 (stereo not drawn) [Compound 30, (3-methoxy-4-((5-(thiophen-2-yl)-1,3,4-oxadiazol-2-yl)carbamoyl)phenyl)proline]",7.90
18,"COc1cc(N2CCCC(C(=O)O)C2)ccc1C(=O)Nc1nnc(-c2cccs2)o1 (stereo not drawn) [Compound 31, 1-(3-methoxy-4-((5-(thiophen-2-yl)-1,3,4-oxadiazol-2-yl)carbamoyl)phenyl)piperidine-3-carboxylic Acid]",8.16
19,"COc1cc(N2CC3CC(C2)O3)ccc1C(=O)Nc1nnc(-c2cccs2)o1 [Compound 33, 4-(6-oxa-3-azabicyclo[3.1.1]heptan-3-yl)-2-methoxy-N-(5-(thiophen-2-yl)-1,3,4-oxadiazol-2-yl)benzamide]",7.29
20,"COc1cc(N2CCOCC2)ccc1S(=O)(=O)Nc1nnc(-c2cncs2)o1 [Compound 35, 2-methoxy-4-morpholino-N-(5-(thiazol-5-yl)-1,3,4-oxadiazol-2-yl)benzenesulfonamide]",<5
21,"COc1cc(N2CCOCC2)ccc1C(=O)N(C)c1nnc(-c2cncs2)o1 [Compound 36, 2-methoxy-N-methyl-4-morpholino-N-(5-(thiazol-5-yl)-1,3,4-oxadiazol-2-yl)benzamide]",<5
22,"COc1cc(N2CCOCC2)ccc1C(=O)Nc1nnc(-c2cccs2)o1 [Compound 37, 2-methoxy-4-morpholino-N-(5-(thiophen-2-yl)-1,3,4-oxadiazol-2-yl)benzamide]",7.44
23,"O=C(NCc1nnc(-c2cccs2)o1)c1ccccc1OC(F)(F)F [Compound 41, N-((5-(thiophen-2-yl)-1,3,4-oxadiazol-2-yl)methyl)-2-(trifluoromethoxy)benzamide]",1.77
24,"O=C(NCc1nnc(-c2cccs2)o1)c1ccccc1O [Compound 42, 2-hydroxy-N-((5-(thiophen-2-yl)-1,3,4-oxadiazol-2-yl)methyl)benzamide]",3.10
25,"O=C(NCc1nnc(-c2cccs2)o1)c1ccccc1Cl [Compound 43, 2-chloro-N-((5-(thiophen-2-yl)-1,3,4-oxadiazol-2-yl)methyl)benzamide]",5.09
26,"O=C(NCc1nnc(-c2cccs2)o1)c1c(F)cccc1F [Compound 45, 2,6-difluoro-N-((5-(thiophen-2-yl)-1,3,4-oxadiazol-2-yl)methyl)benzamide]",<5
27,"COc1cnccc1C(=O)NCc1nnc(-c2cccs2)o1 [Compound 47, 3-methoxy-N-((5-(thiophen-2-yl)-1,3,4-oxadiazol-2-yl)methyl)isonicotinamide]",<5
28,"COc1ncccc1C(=O)NCc1nnc(-c2cccs2)o1 [Compound 48, 2-methoxy-N-((5-(thiophen-2-yl)-1,3,4-oxadiazol-2-yl)methyl)nicotinamide]",<5

# Same assay, conditions: read-out: Tautomerase Inhibition pIC50 (converted)
row,Compound,IC50 [nM]
1,"COc1cc([C@H]2CC[C@@H](C(=O)O)CC2)ccc1C(=O)Nc1nnc(-c2cccs2)o1 [Compound 27, Cis-4-(3-methoxy-4-((5-(thiophen-2-yl)-1,3,4-oxadiazol-2-yl)carbamoyl)phenyl)cyclohexane-1-carboxylic acid]",18.6
2,"COc1cc([C@H]2CC[C@H](C(=O)O)CC2)ccc1C(=O)Nc1nnc(-c2cccs2)o1 [Compound 28, Trans-4-(3-methoxy-4-((5-(thiophen-2-yl)-1,3,4-oxadiazol-2-yl)carbamoyl)phenyl)cyclohexane-1-carboxylic acid]",38

# From patent US11884682B2, “Compounds and their uses as MIF inhibitors” (NANJING IMMUNOPHAGE BIOTECH CO., LTD., priority 2020, dated 2024)
